Measured values published in patent EP0597004B1, “THE USE OF DIOXAPYRROLOMYCIN AS AN ANTIPARASITIC AGENT AND COMPOSITIONS USEFUL THEREFOR” (PHARMACIA & UPJOHN COMPANY, priority 1991, dated 1993).
Where “and” joins values, the source holds several entries; their conditions need not be identical. Equal values may be shown once. Where a name gives a salt, the structure may show the parent alone. Read-outs that look alike come from different tables or passages of the source.

What was measured:
Haemonchus contortus [1] = assay: Haemonchus contortus / jird assay (clearance from experimentally infected jirds); format: in vivo; details: necropsy day 13 PI; for Percentage Clearance Susceptible: susceptible strain; for Percentage Clearance H. contortus: purity ∼100%
Experimental: (§1) This in vivo assay utilizes jirds infected with two important target parasites of ruminants, H. contortus and T. colubriformis (anthelmintic-sensitive or -resistant worms can be used). Initially, activity is assessed only against H. contortus as described in G.A. Conder et. al., J. Parasitol. 76:168-170 (1990), while follow-up studies examine activity against both species of parasites using the techniques outlined in G.A. Conder et al., J. Parsitol. 77:168-170 (1991).

[2] = tested on: levamisole/benzimidazole-resistant Haemonchus contortus; assay: Jird assay with levamisole/benzimidazole-resistant strain (cross-resistance); format: in vivo; details: jirds, necropsy day 13 PI
Excerpt: (§2) Having shown potent activity against H. contortus in sheep, dioxapyrrolomycin was examined for cross-resistance to the three major classes of broad-spectrum anthelmintics (ivermectin, levamisole, and benzimidazoles) using jirds infected with resistant strains of H. contortus. […] In vitro, the dioxapyrrolomycin dose required to affect a closantel-resistant strain of H. contortus is approximately seventeen times that required for the susceptible strain.
as §1

[3] = tested on: ivermectin-resistant Haemonchus contortus; assay: Jird assay with ivermectin-resistant strain (cross-resistance); format: in vivo; details: jirds, necropsy day 13 PI
Excerpt: as §2, §1

Caenorhabditis elegans = Caenorhabditis elegans in vitro assay; details: free-living nematode
Excerpt: The free-living nematode C. elegans in vitro assay has been described extensively in the literature, for example, K.G. Simpkin and G.C. Coles, J. Chem. Tech. Biotechnol., 31:66-69 (1981).
Dioxapyrrolomycin is active in the C. elegans assay at 0.825 ppm.

[4] = tested on: Trichostrongylus colubriformis; assay: Trichostrongylus colubriformis / jird assay (clearance from experimentally infected jirds); format: in vivo; details: necropsy day 13 PI, purity ∼100%
Experimental: as §1

Haemonchus contortus [5] = assay: Haemonchus contortus / sheep assay (clearance from monospecifically infected lambs); format: in vivo; details: necropsy day 42 PI
Experimental: Purpose bred, helminth-free lambs are procured. Upon arrival, the lambs are treated with ivermectin (0.2 mg/kg, subcutaneously), vaccinated for sore mouth, and placed in a single, community pen. Three weeks later each lamb is treated with levamisole hydrochloride (8.0 mg/kg per os). Two weeks after treatment with levamisole, all lambs are inoculated per os with ∼ 7,500 infective larvae of H. contortus. Rectal fecal samples are taken from each lamb 1 to 3 days prior to infection and these are examined using the double centrifugation technique to verify that the animals are free of trichostrongyles prior to infection. […] Remaining lambs are treated per os on day 35 PI; 4-5 animals receive vehicle only. Prior to administration, test materials are prepared in a manner suitable for the substance being examined. All lambs are monitored for toxic signs following treatment. Lambs are killed 7 days after treatment (day 42 PI), and the abomasum is ligated and removed from each animal. Each abomasum is opened longitudinally and the contents rinsed into an 80 mesh sieve. Sieve contents are collected in individual containers and fixed in formol-alcohol. Later each sample is transferred to a 1,000 ml graduated cylinder and the volume brought to 400 - 1000 ml with tap water. The total number of worms in a 10% aliquot is determined. If no worms are found in the 10% aliquot, the entire sample is examined. Total worm number/lamb and percentage clearance for each treatment are calculated. Percentage clearance is determined according to the following formula: Percentage clearance = [(Mean number of worms recovered from vehicle control lambs - number of worms recovered from treated lamb)/mean number of worms recovered from vehicle control lambs] x 100.

[6] = tested on: closantel-resistant strain of H. contortus; assay: In vitro cross-resistance with closantel-resistant strain; set-up: species or system Haemonchus contortus; details: closantel-resistant vs susceptible H. contortus
Excerpt: as §2

[7] = mice, cited from earlier work
[8] = 0.012 mg/jird per os on day 10 PI
[9] = 0.11 mg/jird per os on day 10 PI
[10] = 0.11 mg/jird per os day 10 PI, purity 95%

Molecule: Ivermectin
- Percentage Clearance Susceptible (Haemonchus contortus [1]; 0.005 mg/jird per os day 10 PI): ∼95.0%
- Percentage Clearance Levamisole/Benzimidazole Resistant ([2]; 0.005 mg/jird per os day 10 PI): 98.6%
- Percentage Clearance Ivermectin Resistant ([3]; 0.005 mg/jird per os day 10 PI): 18.7%

Molecule: c1ccc([C@H]2CN3CCSC3=N2)cc1 [Levamisole hydrochloride]
- Percentage Clearance Susceptible (Haemonchus contortus [1]; 0.4 mg/jird per os day 10 PI): ∼95.0%
- Percentage Clearance Levamisole/Benzimidazole Resistant ([2]; 0.4 mg/jird per os day 10 PI): 51.7%
- Percentage Clearance Ivermectin Resistant ([3]; 0.4 mg/jird per os day 10 PI): 96.4%

Molecule: O=[N+]([O-])c1c([C@H]2OCOc3c(Cl)cc(Cl)cc32)[nH]c(Cl)c1Cl [Dioxapyrrolomycin, dioxapyrrolomycin]
- active in the C. elegans in vitro assay at (Caenorhabditis elegans): 0.825 ppm
- Percentage Clearance H. contortus (Haemonchus contortus [1]; [8]): 45.8%
- Percentage Clearance H. contortus (Haemonchus contortus [1]; 0.037 mg/jird (= 0.925 mg/kg) per os on day 10 PI): 96.4%
- Percentage Clearance H. contortus (Haemonchus contortus [1]; [9]): 100%
- Percentage Clearance Susceptible (Haemonchus contortus [1]; [10]): 95.8%
- Percentage Clearance T. colubriformis [4, 8]: 48.8%
- Percentage Clearance T. colubriformis ([4]; 0.037 mg/jird per os on day 10 PI): 17.2%
- Percentage Clearance T. colubriformis [4, 9]: 0%
- Percentage Clearance T. colubriformis ([4]; 0.33 mg/jird (= 8.25 mg/kg) per os on day 10 PI): 41.5%
- Percentage Clearance (Haemonchus contortus [5]; 0.78 mg/kg per os on day 35 PI): 44.0%
- Percentage Clearance (Haemonchus contortus [5]; 1.56 mg/kg per os on day 35 PI): 92.2%
- Percentage Clearance (Haemonchus contortus [5]; 3.125 mg/kg per os on day 35 PI, 3.125 mg/kg): 99.7% and 99.9%
- Percentage Clearance (Haemonchus contortus [5]; 6.25 mg/kg per os on day 35 PI): 99.9%
- Percentage Clearance (Haemonchus contortus [5]; 12.5 mg/kg per os on day 35 PI): 100%
- Percentage Clearance Levamisole/Benzimidazole Resistant [2, 10]: 98.6%
- Percentage Clearance Ivermectin Resistant [3, 10]: 92.7%
- dose required to affect a closantel-resistant strain relative to that required for the susceptible strain [6]: approximately seventeen
- LD50 ([7]; ip): 125 to 250 mg/kg
- LD50 ([7]; po): 13 mg/kg

Molecule: CCCSc1ccc2nc(NC(=O)OC)[nH]c2c1 [Albendazole, reference compound]
- Percentage Clearance Susceptible (Haemonchus contortus [1]; 0.075 mg/jird per os day 10 PI): ∼95.0%
- Percentage Clearance Levamisole/Benzimidazole Resistant ([2]; 0.075 mg/jird per os day 10 PI): 36.2%
